A short description of data set [1]: lipid pKa of cationic lipids.

Molecules are shown by their SMILES.

Usually pKa stands for the negative logarithm of the acid dissociation constant. Higher therefore signals a group that holds its proton tightly.

In the data set “physchem”, `CCCCC/C=C\C/C=C\CCCCCCCCC1(CCCCCCCC/C=C\C/C=C\CCCCC)OCC(CCN(C)C)O1` (centres unmarked) [DLin-KC2-DMA, 2,2-Dilinoleyl-4-(2-dimethylaminoethyl)-[1,3]-dioxolane] registered a pKa of about 6.7.
As for `CCCCC/C=C\C/C=C\CCCCCCCCOCC(CN(C)C)OCCCCCCCC/C=C\C/C=C\CCCCC` (centres unmarked) [DLinDMA], the “lipid pKa” value in data set [1] came out at 6.8.

These data come from patent publication US10583084B2, “Liposomal formulations for delivery of nucleic acids” (RAMOT AT TEL-AVIV UNIVERSITY LTD., priority 2014, dated 2020).
